{
  "source": "ChEMBL document CHEMBL3044763",
  "about": "“Inhibitory Activities of Rhodanine Derivatives on Plant Growth” (Biosci Biotechnol Biochem, 1996)",
  "key": {"[1]": {"assay": "Toxicity in Mus musculus ddY (mouse) assessed as mortality at 200 mg/kg, ip after 1 day", "format": "organism-based", "design": "dose 200 mg/kg, route intraperitoneal", "settings": "in vivo"}, "[2]": {"assay": "Toxicity in Mus musculus ddY (mouse) assessed as mortality at 250 mg/kg, ip after 1 day", "format": "organism-based", "design": "dose 250 mg/kg, route intraperitoneal", "settings": "in vivo"}, "[3]": {"assay": "Toxicity in Mus musculus ddY (mouse) assessed as mortality at 300 mg/kg, ip after 1 day", "format": "organism-based", "design": "dose 300 mg/kg, route intraperitoneal", "settings": "in vivo"}, "[4]": {"assay": "Toxicity in Mus musculus ddY (mouse) assessed as mortality at 275 mg/kg, ip after 1 day", "format": "organism-based", "design": "dose 275 mg/kg, route intraperitoneal", "settings": "in vivo"}, "[5]": {"assay": "Toxicity in Mus musculus ddY (mouse) assessed as mortality at 325 mg/kg, ip after 1 day", "format": "organism-based", "design": "dose 325 mg/kg, route intraperitoneal", "settings": "in vivo"}, "[6]": {"tested_on": "Brassica rapa subsp. oleifera", "assay": "Growth inhibition of Brassica rapa subsp. oleifera assessed as chlorophyll b level at 3 x 10^-5 M after 7 days", "format": "functional", "design": "scale not given: the % may be the effect or the level left"}, "[7]": {"tested_on": "Brassica rapa subsp. oleifera", "assay": "Growth inhibition of Brassica rapa subsp. oleifera assessed as chlorophyll b level at 5 x 10^-5 M after 7 days", "format": "functional", "design": "scale not given: the % may be the effect or the level left"}, "[8]": {"tested_on": "Brassica rapa subsp. oleifera", "assay": "Growth inhibition of Brassica rapa subsp. oleifera assessed as chlorophyll a level at 1 x 10^-4 M after 7 days", "format": "functional", "design": "scale not given: the % may be the effect or the level left"}, "[9]": {"tested_on": "Brassica rapa subsp. oleifera", "assay": "Growth inhibition of Brassica rapa subsp. oleifera assessed as chlorophyll a level at 3 x 10^-4 M after 7 days", "format": "functional", "design": "scale not given: the % may be the effect or the level left"}, "[10]": {"assay": "Toxicity in Mus musculus ddY (mouse) assessed as mortality at 225 mg/kg, ip after 5 days", "format": "organism-based", "design": "dose 225 mg/kg, route intraperitoneal", "settings": "in vivo"}, "[11]": {"assay": "Toxicity in Mus musculus ddY (mouse) assessed as mortality at 200 mg/kg, ip after 5 days", "format": "organism-based", "design": "dose 200 mg/kg, route intraperitoneal", "settings": "in vivo"}, "[12]": {"assay": "Toxicity in Mus musculus ddY (mouse) assessed as mortality at 250 mg/kg, ip after 5 days", "format": "organism-based", "design": "dose 250 mg/kg, route intraperitoneal", "settings": "in vivo"}, "[13]": {"assay": "Toxicity in Mus musculus ddY (mouse) assessed as mortality at 275 mg/kg, ip after 5 days", "format": "organism-based", "design": "dose 275 mg/kg, route intraperitoneal", "settings": "in vivo"}, "[14]": {"assay": "Toxicity in Mus musculus ddY (mouse) assessed as mortality at 325 mg/kg, ip after 5 days", "format": "organism-based", "design": "dose 325 mg/kg, route intraperitoneal", "settings": "in vivo"}, "[15]": {"assay": "Toxicity in Mus musculus ddY (mouse) assessed as mortality at 300 mg/kg, ip after 5 days", "format": "organism-based", "design": "dose 300 mg/kg, route intraperitoneal", "settings": "in vivo"}, "[16]": {"assay": "Toxicity in Mus musculus ddY (mouse) assessed as mortality at 275 mg/kg, ip after 7 days", "format": "organism-based", "design": "dose 275 mg/kg, route intraperitoneal", "settings": "in vivo"}, "[17]": {"assay": "Toxicity in Mus musculus ddY (mouse) assessed as mortality at 325 mg/kg, ip after 7 days", "format": "organism-based", "design": "dose 325 mg/kg, route intraperitoneal", "settings": "in vivo"}, "[18]": {"assay": "Toxicity in Mus musculus ddY (mouse) assessed as mortality at 300 mg/kg, ip after 7 days", "format": "organism-based", "design": "dose 300 mg/kg, route intraperitoneal", "settings": "in vivo"}, "[19]": {"assay": "Toxicity in Mus musculus ddY (mouse) assessed as mortality at 225 mg/kg, ip after 6 days", "format": "organism-based", "design": "dose 225 mg/kg, route intraperitoneal", "settings": "in vivo"}, "[20]": {"assay": "Toxicity in Mus musculus ddY (mouse) assessed as mortality at 200 mg/kg, ip after 6 days", "format": "organism-based", "design": "dose 200 mg/kg, route intraperitoneal", "settings": "in vivo"}, "[21]": {"assay": "Toxicity in Mus musculus ddY (mouse) assessed as mortality at 250 mg/kg, ip after 6 days", "format": "organism-based", "design": "dose 250 mg/kg, route intraperitoneal", "settings": "in vivo"}, "[22]": {"assay": "Toxicity in Mus musculus ddY (mouse) assessed as mortality at 300 mg/kg, ip after 6 days", "format": "organism-based", "design": "dose 300 mg/kg, route intraperitoneal", "settings": "in vivo"}, "[23]": {"assay": "Toxicity in Mus musculus ddY (mouse) assessed as mortality at 275 mg/kg, ip after 6 days", "format": "organism-based", "design": "dose 275 mg/kg, route intraperitoneal", "settings": "in vivo"}, "[24]": {"assay": "Toxicity in Mus musculus ddY (mouse) assessed as mortality at 325 mg/kg, ip after 6 days", "format": "organism-based", "design": "dose 325 mg/kg, route intraperitoneal", "settings": "in vivo"}, "[25]": {"assay": "Toxicity in Mus musculus ddY (mouse) assessed as mortality at 200 mg/kg, ip after 7 days", "format": "organism-based", "design": "dose 200 mg/kg, route intraperitoneal", "settings": "in vivo"}, "[26]": {"assay": "Toxicity in Mus musculus ddY (mouse) assessed as mortality at 225 mg/kg, ip after 7 days", "format": "organism-based", "design": "dose 225 mg/kg, route intraperitoneal", "settings": "in vivo"}, "[27]": {"assay": "Toxicity in Mus musculus ddY (mouse) assessed as mortality at 250 mg/kg, ip after 7 days", "format": "organism-based", "design": "dose 250 mg/kg, route intraperitoneal", "settings": "in vivo"}, "[28]": {"assay": "Toxicity in Mus musculus ddY (mouse) assessed as mortality at 225 mg/kg, ip after 4 days", "format": "organism-based", "design": "dose 225 mg/kg, route intraperitoneal", "settings": "in vivo"}, "[29]": {"assay": "Toxicity in Mus musculus ddY (mouse) assessed as mortality at 200 mg/kg, ip after 4 days", "format": "organism-based", "design": "dose 200 mg/kg, route intraperitoneal", "settings": "in vivo"}, "[30]": {"assay": "Toxicity in Mus musculus ddY (mouse) assessed as mortality at 250 mg/kg, ip after 4 days", "format": "organism-based", "design": "dose 250 mg/kg, route intraperitoneal", "settings": "in vivo"}},
  "data": [
    {"compound": "CN1C(=O)CSC1=S", "note": "[3-METHYL-RHODANINE]", "values": [
      {"measurement": "mortality at 24 h", "setting": "[1]", "result": 0, "unit": "%"},
      {"measurement": "mortality at 24 h", "setting": "[2]", "result": 20, "unit": "%"},
      {"measurement": "mortality at 24 h", "setting": "[3]", "result": 40, "unit": "%"},
      {"measurement": "mortality at 24 h", "setting": "[4]", "result": 20, "unit": "%"},
      {"measurement": "mortality at 24 h", "setting": "[5]", "result": 60, "unit": "%"},
      {"measurement": "Activity", "setting": "[6]", "result": 4.67, "unit": "%"},
      {"measurement": "Activity", "setting": "[7]", "result": 4.44, "unit": "%"},
      {"measurement": "Activity", "setting": "[8]", "result": 15.61, "unit": "%"},
      {"measurement": "Activity", "setting": "[9]", "result": 10.77, "unit": "%"},
      {"measurement": "mortality at 120 h", "setting": "[10]", "result": 20, "unit": "%"},
      {"measurement": "mortality at 120 h", "setting": "[11]", "result": 0, "unit": "%"},
      {"measurement": "mortality at 120 h", "setting": "[12]", "result": 40, "unit": "%"},
      {"measurement": "mortality at 120 h", "setting": "[13]", "result": 80, "unit": "%"},
      {"measurement": "mortality at 120 h", "setting": "[14]", "result": 100, "unit": "%"},
      {"measurement": "mortality at 120 h", "setting": "[15]", "result": 80, "unit": "%"},
      {"measurement": "mortality at 168 h", "setting": "[16]", "result": 80, "unit": "%"},
      {"measurement": "mortality at 168 h", "setting": "[17]", "result": 100, "unit": "%"},
      {"measurement": "mortality at 168 h", "setting": "[18]", "result": 80, "unit": "%"},
      {"measurement": "mortality at 144 h", "setting": "[19]", "result": 20, "unit": "%"},
      {"measurement": "mortality at 144 h", "setting": "[20]", "result": 0, "unit": "%"},
      {"measurement": "mortality at 144 h", "setting": "[21]", "result": 40, "unit": "%"},
      {"measurement": "mortality at 144 h", "setting": "[22]", "result": 80, "unit": "%"},
      {"measurement": "mortality at 144 h", "setting": "[23]", "result": 80, "unit": "%"},
      {"measurement": "mortality at 144 h", "setting": "[24]", "result": 100, "unit": "%"},
      {"measurement": "mortality at 168 h", "setting": "[25]", "result": 0, "unit": "%"},
      {"measurement": "mortality at 168 h", "setting": "[26]", "result": 20, "unit": "%"},
      {"measurement": "mortality at 168 h", "setting": "[27]", "result": 40, "unit": "%"},
      {"measurement": "mortality at 96 h", "setting": "[28]", "result": 20, "unit": "%"},
      {"measurement": "mortality at 96 h", "setting": "[29]", "result": 0, "unit": "%"},
      {"measurement": "mortality at 96 h", "setting": "[30]", "result": 40, "unit": "%"}
    ]}
  ]
}
